{"source": "patent US20140350273A1", "about": "“PEDIATRIC USES OF CABAZITAXEL” (AVENTIS PHARMA S.A., priority 2012, published 2014)", "test_system": "human osteosarcoma DM77", "format": "in vivo", "details": "for Tumor Volume Data (Day 21) Median / ΔT/ΔC %: day 21; for MTTE / T-C: volume endpoint 1400 mm^3", "method": "In the reported examples supporting this invention, vials of the clinical formulation of cabazitaxel and docetaxel were used. […] The resultant solution contains 10 mg/mL of cabazitaxel. Stock solution of cabazitaxel was then diluted in 0.9% sodium chloride.\nThis efficacy may be quantified, for example, as changes in tumor volume for each treated (T) and control (C) group, which are calculated for each animal and each day by subtracting the tumor volume on the day of first treatment (staging day) from the tumor volume on the specified observation day. This allows calculating the tumor growth inhibition: ΔT/ΔC=(median delta T/median delta C)×100. Individual tumor volume changes from baseline are thereafter analyzed by a non-parametric two-way ANOVA-TYPE (with factors: group and repeated days) followed by a post-hoc contrasts analysis, with Bonferroni-Holm adjustment for multiplicity, comparing all treated groups to the control group. […] A probability less than 5% (p<0.05) was considered as significant.\nBased on the National Cancer Institute (NCl) standards, a ΔT/ΔC≦40% is the minimal level required to declare activity.\nThis efficacy may also be quantified by the number of tumor regressions observed after therapy. Individual mice reporting a tumor volume ≦50% of the Day 0 measurement for two consecutive measurements over a seven day period were considered partial responders (PR). Individual mice lacking palpable tumors (<4×4 mm^2 for two consecutive measurements over a seven day period) were classified as complete responders (CR); a CR that persisted until study completion was considered a tumor-free survivor (TFS).\nEfficacy could also be determined at study completion, using tumor growth delay (T-C) in days, which is calculated using the median time to endpoint (MTTE) value for each treatment (T) group versus control (C). A Log Rank multiple comparison test with Bonferroni-Holm adjustment for multiplicity was applied on individual TTE to compare the treated groups to the control group.\nThe efficacy of cabazitaxel in comparison with docetaxel on pediatric patient-derived tumor xenografts was determined experimentally in the following manner:\nThe animals subjected to the experiment are subcutaneously grafted unilaterally with approximately 30 mg of a tumor fragment from low passage pediatric patient-derived tumor xenografts. The animals are implanted with a human patient-derived pediatric tumor xenografted in immuno-compromised mice (Harlan; nu/nu). Several days post tumor implantation, mice are randomized according to their tumor burden to the different groups of treatments and controls. The agents are dosed intravenously at 5.8, 9.3, 15 or 24.2 mg/kg every 4 days for a total of 3 doses (q4d×3) to mice bearing a tumor burden at start of therapy (day 0) ranged from 125 to 250 mm^3.\nBeginning Day 0, animals were observed daily and weighed twice weekly using a digital scale; data including individual and mean gram weights (Mean We±SD), mean percent weight change versus Day 0 were recorded for each group. Animal deaths were recorded daily and designated as drug-related (D), technical (T), tumor related (B), or unknown (U) based on weight loss and gross observation; single agent or combination groups reporting a mean >20% for a period of 7 days and/or >10% mortality were considered above the maximum tolerated dose (MTD) for that treatment on the evaluated regimen.\nThe selected tumor model, DM77, was a low passage patient-derived tumor xenograft derived from an osteosarcoma taken from the lung of a patient. […]", "note": "Where two headings read alike, the source gives them in different places.", "data": [{"smiles": "CC(=O)O[C@@]12CO[C@@H]1C[C@H](O)[C@@]1(C)C(=O)[C@H](O)C3=C(C)[C@@H](OC(=O)[C@H](O)[C@@H](NC(=O)OC(C)(C)C)c4ccccc4)C[C@@](O)([C@@H](OC(=O)c4ccccc4)[C@H]21)C3(C)C", "note": "[Docetaxel, docetaxel]", "values": [{"measurement": "tumor volume changes from baseline, Median +/− nMAD", "setting": "9.3 mg/kg, DAY 53", "result": "542 +/− 447.5"}, {"measurement": "tumor volume changes from baseline, Median +/− nMAD", "setting": "9.3 mg/kg, DAY 56", "result": "493 +/− 238"}, {"measurement": "#CR", "setting": "15 mg/kg i.v./q4dx3", "result": 0}, {"measurement": "#PR", "setting": "15 mg/kg i.v./q4dx3", "result": 3}, {"measurement": "#TFS", "setting": "15 mg/kg i.v./q4dx3", "result": 0}, {"measurement": "Drug Deaths Total", "setting": "15 mg/kg i.v./q4dx3", "result": 0}, {"measurement": "Weight Change at Nadir %", "setting": "15 mg/kg i.v./q4dx3", "result": "−14", "unit": "%"}, {"measurement": "Weight Change at Nadir Day", "setting": "15 mg/kg i.v./q4dx3", "result": 11, "unit": "days"}, {"measurement": "Tumor Volume Data (Day 21) Median", "setting": "15 mg/kg i.v./q4dx3", "result": 78, "unit": "mm^3"}, {"measurement": "ΔT/ΔC %", "setting": "15 mg/kg i.v./q4dx3", "result": "−5.9", "unit": "%"}, {"measurement": "MTTE", "setting": "15 mg/kg i.v./q4dx3", "result": ">60", "unit": "days"}, {"measurement": "T-C", "setting": "15 mg/kg i.v./q4dx3", "result": ">35", "unit": "days"}, {"measurement": "tumor volume changes from baseline, Median +/− nMAD", "setting": "15 mg/kg, DAY 4", "result": "66 +/− 66"}, {"measurement": "tumor volume changes from baseline, Median +/− nMAD", "setting": "15 mg/kg, DAY 7", "result": "73 +/− 73"}, {"measurement": "tumor volume changes from baseline, Median +/− nMAD", "setting": "15 mg/kg, DAY 11", "result": "−41 +/− 41"}, {"measurement": "tumor volume changes from baseline, Median +/− nMAD", "setting": "15 mg/kg, DAY 14", "result": "−41 +/− 41"}, {"measurement": "tumor volume changes from baseline, Median +/− nMAD", "setting": "15 mg/kg, DAY 18", "result": "−53 +/− 17"}, {"measurement": "tumor volume changes from baseline, Median +/− nMAD", "setting": "15 mg/kg, DAY 21", "result": "−54 +/− 12"}, {"measurement": "tumor volume changes from baseline, Median +/− nMAD", "setting": "15 mg/kg, DAY 25", "result": "−66 +/− 17"}, {"measurement": "tumor volume changes from baseline, Median +/− nMAD", "setting": "15 mg/kg, DAY 28", "result": "−66 +/− 17"}, {"measurement": "tumor volume changes from baseline, Median +/− nMAD", "setting": "15 mg/kg, DAY 32", "result": "−66 +/− 17"}, {"measurement": "tumor volume changes from baseline, Median +/− nMAD", "setting": "15 mg/kg, DAY 35", "result": "−66 +/− 13"}, {"measurement": "tumor volume changes from baseline, Median +/− nMAD", "setting": "15 mg/kg, DAY 39", "result": "−66 +/− 13"}, {"measurement": "tumor volume changes from baseline, Median +/− nMAD", "setting": "15 mg/kg, DAY 42", "result": "−66 +/− 13"}, {"measurement": "tumor volume changes from baseline, Median +/− nMAD", "setting": "15 mg/kg, DAY 46", "result": "−58 +/− 11"}, {"measurement": "tumor volume changes from baseline, Median +/− nMAD", "setting": "15 mg/kg, DAY 49", "result": "−58 +/− 11"}, {"measurement": "tumor volume changes from baseline, Median +/− nMAD", "setting": "15 mg/kg, DAY 53", "result": "−58 +/− 11"}, {"measurement": "tumor volume changes from baseline, Median +/− nMAD", "setting": "15 mg/kg, DAY 56", "result": "−58 +/− 11"}, {"measurement": "#CR", "setting": "24.2 mg/kg i.v./q4dx3", "result": 1}, {"measurement": "#PR", "setting": "24.2 mg/kg i.v./q4dx3", "result": 6}, {"measurement": "#TFS", "setting": "24.2 mg/kg i.v./q4dx3", "result": 1}, {"measurement": "Drug Deaths Total", "setting": "24.2 mg/kg i.v./q4dx3", "result": 0}, {"measurement": "Weight Change at Nadir %", "setting": "24.2 mg/kg i.v./q4dx3", "result": "−17", "unit": "%"}, {"measurement": "Weight Change at Nadir Day", "setting": "24.2 mg/kg i.v./q4dx3", "result": 14, "unit": "days"}, {"measurement": "Tumor Volume Data (Day 21) Median", "setting": "24.2 mg/kg i.v./q4dx3", "result": 71.5, "unit": "mm^3"}, {"measurement": "ΔT/ΔC %", "setting": "24.2 mg/kg i.v./q4dx3", "result": "−6.1", "unit": "%"}, {"measurement": "MTTE", "setting": "24.2 mg/kg i.v./q4dx3", "result": ">60", "unit": "days"}, {"measurement": "T-C", "setting": "24.2 mg/kg i.v./q4dx3", "result": ">35", "unit": "days"}, {"measurement": "tumor volume changes from baseline, Median +/− nMAD", "setting": "24.2 mg/kg, DAY 4", "result": "0 +/− 0"}, {"measurement": "tumor volume changes from baseline, Median +/− nMAD", "setting": "24.2 mg/kg, DAY 7", "result": "0 +/− 0"}, {"measurement": "tumor volume changes from baseline, Median +/− nMAD", "setting": "24.2 mg/kg, DAY 11", "result": "−50 +/− 24"}, {"measurement": "tumor volume changes from baseline, Median +/− nMAD", "setting": "24.2 mg/kg, DAY 14", "result": "−55.5 +/− 20"}, {"measurement": "tumor volume changes from baseline, Median +/− nMAD", "setting": "24.2 mg/kg, DAY 18", "result": "−55.5 +/− 20"}, {"measurement": "tumor volume changes from baseline, Median +/− nMAD", "setting": "24.2 mg/kg, DAY 21", "result": "−55.5 +/− 10.5"}, {"measurement": "tumor volume changes from baseline, Median +/− nMAD", "setting": "24.2 mg/kg, DAY 25", "result": "−55.5 +/− 10.5"}, {"measurement": "tumor volume changes from baseline, Median +/− nMAD", "setting": "24.2 mg/kg, DAY 28", "result": "−53.5 +/− 13"}, {"measurement": "tumor volume changes from baseline, Median +/− nMAD", "setting": "24.2 mg/kg, DAY 32", "result": "−53.5 +/− 33"}, {"measurement": "tumor volume changes from baseline, Median +/− nMAD", "setting": "24.2 mg/kg, DAY 35", "result": "−57.5 +/− 45.5"}, {"measurement": "tumor volume changes from baseline, Median +/− nMAD", "setting": "24.2 mg/kg, DAY 39", "result": "−57.5"}, {"measurement": "tumor volume changes from baseline, Median +/− nMAD", "setting": "24.2 mg/kg, DAY 42", "result": "−57.5"}, {"measurement": "tumor volume changes from baseline, Median +/− nMAD", "setting": "24.2 mg/kg, DAY 46", "result": "−57.5"}, {"measurement": "tumor volume changes from baseline, Median +/− nMAD", "setting": "24.2 mg/kg, DAY 49", "result": "−48 +/− 45.5"}, {"measurement": "tumor volume changes from baseline, Median +/− nMAD", "setting": "24.2 mg/kg, DAY 53", "result": "−48 +/− 69.5"}, {"measurement": "tumor volume changes from baseline, Median +/− nMAD", "setting": "24.2 mg/kg, DAY 56", "result": "−48 +/− 69.5"}]}]}
